{
  "source": "paper PMC9842066",
  "about": "“Implantable device actuated by manual button clicks for noninvasive self‐drug administration” (Bioengineering & Translational Medicine, 2022)",
  "key": {"[1]": {"test_system": "STZ-induced diabetic rats", "assay": "PD studies on insulin and glucagon delivery (plasma glucose)", "assay_type": "in vivo, Wistar rats", "details": "hyperglycemic STZ-induced Type 1 diabetic rats (>400 mg dl^−1); 1-U insulin by SC injection or BCD; n = 4 per group", "description": "For this experiment, we employed a Type 1 diabetic animal model, streptozotocin (STZ)‐induced diabetic rats.[26], [28] To induce this animal model, Wistar rats were fasted overnight, and then intraperitoneally injected with a STZ solution (60 mg kg^−1) prepared in 0.09 M citrate buffered saline (pH 4.0) to destroy the beta‐cells of the pancreas. Three days after the STZ injection, the plasma glucose level was measured with a glucometer, and the animals with a plasma glucose level > 400 mg dl^−1 were screened for use. Among them, we employed two distinct animal models of hyperglycemia and hypoglycemia, respectively. For a hyperglycemic condition, the animals were used as they were with a blood glucose level of >400 mg dl^−1.[28], [29] For a hypoglycemic condition, the animals were fasted overnight and the ones with a plasma glucose level of <72 mg dl^−1 were screened for use.[30] The hyperglycemic animals were treated with 1‐U insulin by an SC injection or implanted BCD: Inj‐Insulin (n = 4) and BCD‐Insulin (n = 4), respectively. For this, we utilized a commercially available insulin solution (100 U ml^−1; NovoRapid, Novo Nordisk). […] After administration, the plasma glucose level was measured with a glucometer at scheduled times."}, "[2]": {"assay": "Stability assessment of exenatide and insulin in the BCD", "excerpt": "Supplementary Figure 5. […] To obtain the CD spectra, the solution was placed in a 1-mm path length cuvette (Chirascan plus, Applied Photophysics, Surrey, UK) and scanned over range of 200-260 nm."}},
  "data": [
    {"substance": "insulin: commercially available insulin solution (100 U ml^−1; NovoRapid, Novo Nordisk)", "values": [
      {"measurement": "Change in plasma glucose level after insulin", "setting": "[1]", "value": "decrease"},
      {"measurement": "Stability during 4-week period in the BCD", "setting": "[2]; 4 weeks, Figure S5", "value": "well retained"},
      {"measurement": "Drop of blood glucose level with stored versus fresh insulin", "setting": "[2]; insulin stored in BCD at 37 °C for 28 days, injected subcutaneously to diabetic animals, n = 3", "value": "similar"},
      {"measurement": "Drug content (HPLC) and far-UV CD spectra after incubation in the BCD", "setting": "[2]; loaded BCDs stored at 37 °C for 28 days, versus fresh drug solution, n = 3, HPLC and CD 200-260 nm", "value": "did not vary"}
    ]}
  ]
}
